This passage reports inhibition results from paper PMC6934184, “Selective DNA-PKcs inhibition extends the therapeutic index of localized radiotherapy and chemotherapy” (The Journal of Clinical Investigation, 2019).

Structures are written as SMILES.

The target of the assay is T1, AMPK (A1/B1/G2) (Homo sapiens, UniProt Q13131).
T1 construct: purchased Thermo Fisher Scientific (Life Technologies) SelectScreen
Kind of assay: SelectScreen LanthaScreen. In kind it is binding. The note with it: read-out: % displacement. A digest of the protocol: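 SelectScreen broad panel; activity (Z'LYTE, Adapta) plus binding formats. ATP: Km app for CSF1R Z'LYTE; 10 for CAMK1 Adapta. Readout = % per kinase.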

T1 sequence (Q13131 whole entry): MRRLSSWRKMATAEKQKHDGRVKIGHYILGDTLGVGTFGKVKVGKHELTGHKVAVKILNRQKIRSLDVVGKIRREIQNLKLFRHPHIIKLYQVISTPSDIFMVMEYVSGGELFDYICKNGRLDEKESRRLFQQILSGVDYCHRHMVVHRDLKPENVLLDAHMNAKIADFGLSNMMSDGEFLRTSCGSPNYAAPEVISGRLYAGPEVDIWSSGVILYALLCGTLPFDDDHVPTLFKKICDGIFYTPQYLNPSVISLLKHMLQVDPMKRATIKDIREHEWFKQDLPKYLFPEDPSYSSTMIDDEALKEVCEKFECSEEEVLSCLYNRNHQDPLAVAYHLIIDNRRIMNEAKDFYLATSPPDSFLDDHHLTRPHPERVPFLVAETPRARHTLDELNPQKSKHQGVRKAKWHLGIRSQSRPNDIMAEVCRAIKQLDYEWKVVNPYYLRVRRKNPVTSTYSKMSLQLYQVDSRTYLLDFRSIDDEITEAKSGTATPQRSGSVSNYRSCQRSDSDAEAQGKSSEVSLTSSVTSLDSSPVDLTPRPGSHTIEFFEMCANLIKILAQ
T1 sequence (Q9Y478 whole entry partner): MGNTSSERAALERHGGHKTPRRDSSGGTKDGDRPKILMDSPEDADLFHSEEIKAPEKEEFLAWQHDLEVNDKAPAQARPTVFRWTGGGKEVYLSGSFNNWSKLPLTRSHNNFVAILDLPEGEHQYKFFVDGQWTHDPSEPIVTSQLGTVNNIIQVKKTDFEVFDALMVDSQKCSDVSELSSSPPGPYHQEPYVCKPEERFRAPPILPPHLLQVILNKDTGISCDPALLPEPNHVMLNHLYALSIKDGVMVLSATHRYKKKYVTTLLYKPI
T1 sequence (Q9UGJ0 whole entry partner): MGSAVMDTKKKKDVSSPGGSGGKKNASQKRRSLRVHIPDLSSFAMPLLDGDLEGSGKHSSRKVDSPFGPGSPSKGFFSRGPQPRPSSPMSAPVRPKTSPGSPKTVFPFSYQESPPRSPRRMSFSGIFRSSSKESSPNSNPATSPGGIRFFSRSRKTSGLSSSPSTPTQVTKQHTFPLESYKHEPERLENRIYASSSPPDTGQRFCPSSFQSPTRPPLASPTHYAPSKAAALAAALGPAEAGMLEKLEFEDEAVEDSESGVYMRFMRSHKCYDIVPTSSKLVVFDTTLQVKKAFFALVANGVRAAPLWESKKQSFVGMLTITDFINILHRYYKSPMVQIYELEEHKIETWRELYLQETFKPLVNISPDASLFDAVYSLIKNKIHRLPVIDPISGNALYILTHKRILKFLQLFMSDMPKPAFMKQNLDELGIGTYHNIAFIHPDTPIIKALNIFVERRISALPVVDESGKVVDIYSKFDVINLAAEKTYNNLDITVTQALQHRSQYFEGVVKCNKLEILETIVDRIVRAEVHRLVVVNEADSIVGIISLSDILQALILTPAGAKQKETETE

As to `CN(C(=O)CN1CCOCC1)c1ccc2sc3c(-c4cccc5c(=O)cc(N6CC7CCC(C6)O7)oc45)cccc3c2c1` [NU5455], the inhibition at 1 µM worked out at 2.4%.
